The results in this text go back to patent US11787762B2, “Tetralin and tetrahydroquinoline compounds as inhibitors of HIF-2alpha” (ARCUS BIOSCIENCES, INC., priority 2020, dated 2023).

Experiment [1] deals with T1, Histidine tagged HIF-2α protein containing PAS-B domain (240-350) (Homo sapiens, UniProt Q99814).
T1 construct: HIF-2α protein containing PAS-B domain (240-350); made in house
The experiment can be described thus: HIF-2α Scintillation Proximity Assay (SPA) binding assay. As to conditions: 50 nM HIF-2α protein, 25 nM 3H-tracer. Summed up: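 His-tagged HIF-2α PAS-B (240-350), 50 nM final, preincubated with compound 1 h at room temperature in 25 mM Tris-HCl pH 7.4, 150 mM NaCl, 0.15% BSA, 0.001% Tween 20, 2% DMSO. Copper-chelate SPA beads (3 ug/well, 45 min) and 25 nM tritiated N-(3-chlorophenyl)-4-nitro-2,1,3-benzoxadiazol-5-amine tracer followed; IC50 from four-parameter fits.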

A further experiment has as its target T2, HIF-2α (Homo sapiens, UniProt Q99814).
T2 construct: host or cells: 786-O cells stably transduced with Cignal Lenti HIF Luc Reporter (only the reporter was introduced, not HIF-2α)
Kind of experiment: HIF-2α luciferase reporter assay in HIF-Luc-786-O cells. It counts as cell-based. A digest of the protocol: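 Luminescence (ONE-Glo) read after 20 h compound incubation, top concentration 50 uM, 1% DMSO, 20,000 HIF-Luc-786-O cells per well. Activity scaled between DMSO maximum and no-cell baseline; four-parameter dose-response fits yielded IC50.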
In general terms: In a reporter assay the amount or activity of a reporter protein is the signal.

Where only a bound is given, the exact number is not on record here.

T2 sequence (Q99814 whole entry): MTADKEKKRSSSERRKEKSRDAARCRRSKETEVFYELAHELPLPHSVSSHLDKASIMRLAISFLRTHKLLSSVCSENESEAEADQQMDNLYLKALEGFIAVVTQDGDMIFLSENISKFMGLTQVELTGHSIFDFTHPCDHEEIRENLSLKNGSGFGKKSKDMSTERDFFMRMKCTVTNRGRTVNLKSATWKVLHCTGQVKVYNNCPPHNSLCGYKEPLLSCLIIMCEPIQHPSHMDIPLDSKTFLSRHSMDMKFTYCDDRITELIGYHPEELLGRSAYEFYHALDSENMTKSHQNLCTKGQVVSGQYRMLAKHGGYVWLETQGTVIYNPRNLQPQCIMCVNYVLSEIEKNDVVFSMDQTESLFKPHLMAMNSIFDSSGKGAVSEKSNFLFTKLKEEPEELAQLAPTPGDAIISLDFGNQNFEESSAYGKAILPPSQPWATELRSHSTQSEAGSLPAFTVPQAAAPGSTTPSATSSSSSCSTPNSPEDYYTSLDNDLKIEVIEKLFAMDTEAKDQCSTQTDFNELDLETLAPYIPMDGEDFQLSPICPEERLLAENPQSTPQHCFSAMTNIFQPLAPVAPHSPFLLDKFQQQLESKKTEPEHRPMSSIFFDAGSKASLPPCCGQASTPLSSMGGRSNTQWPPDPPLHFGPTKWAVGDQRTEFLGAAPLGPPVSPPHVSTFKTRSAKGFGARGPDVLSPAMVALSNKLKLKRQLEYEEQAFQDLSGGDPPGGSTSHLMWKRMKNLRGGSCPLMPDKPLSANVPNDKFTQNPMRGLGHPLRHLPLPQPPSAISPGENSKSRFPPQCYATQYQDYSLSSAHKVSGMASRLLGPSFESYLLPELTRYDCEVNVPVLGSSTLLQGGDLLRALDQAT
T1 sequence (Q99814 240-350): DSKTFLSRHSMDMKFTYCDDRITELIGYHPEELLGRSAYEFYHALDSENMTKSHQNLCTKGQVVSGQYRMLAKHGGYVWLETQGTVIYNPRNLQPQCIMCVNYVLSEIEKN

Regarding `N#Cc1cc(F)cc2c1[C@H](c1ccc(S(=O)(=O)C(F)(F)F)c3c1CC[C@H]3O)CCC2` [Example 100], the IC50 (as a rule, the concentration that gives 50% inhibition) in experiment [1] (Table 1) lay within 100 to 1000 nM; on HIF-2α (Table 1, 20 hours incubation), 100 to 1000 nM.
In the case of `O=S(=O)(c1ccc([C@@H]2c3c(F)cc(F)cc3CC[C@@H]2O)c2c1[C@H](O)[C@H](F)C2)C(F)(F)F` [Example 101], the IC50 is 100 to 1000 nM in experiment [1] (Table 1) and more than 1000 nM at HIF-2α (Table 1, 20 hours incubation).
The corresponding values for `O=S(=O)(c1ccc([C@H]2CCNc3cc(F)cc(F)c32)c2c1[C@H](O)[C@H](F)C2)C(F)(F)F` [Example 102] are more than 1000 nM and more than 1000 nM.
Turning to `O=S1(=O)c2ccc(C3CCCc4cc(F)cc(F)c43)c(Cl)c2C(O)C1(F)F` (stereo not drawn) [Example 103], the IC50 in experiment [1] (Table 1) is more than 1000 nM; against HIF-2α (Table 1, 20 hours incubation) it was more than 1000 nM.
For the compound `O=S(=O)(c1ccc([C@@H]2CCOc3cc(F)cc(F)c32)c2c1[C@H](O)[C@H](F)C2)C(F)(F)F` [Example 104], the IC50 in experiment [1] (Table 1) was more than 1000 nM; against HIF-2α (Table 1, 20 hours incubation), more than 1000 nM.
On to `CS(=O)(=O)c1ccc([C@@H]2CCCc3cc(F)cc(C#N)c32)c2c1[C@H](O)[C@@H](F)CC2` [Example 105], for which the IC50 in experiment [1] (Table 1) was more than 1000 nM; at HIF-2α (Table 1, 20 hours incubation), more than 1000 nM.
With `CS(=O)(=O)c1ccc([C@@H]2CCCc3cnccc32)c2c1[C@H](O)C(F)(F)C2` [Example 106], the IC50 is more than 1000 nM in experiment [1] (Table 1) and more than 1000 nM against HIF-2α (Table 1, 20 hours incubation).
As to `CS(=O)(=O)c1ccc([C@@H]2CNCc3cc(F)cc(F)c32)c2c1[C@H](O)C(F)(F)C2` [Example 107], the IC50 in experiment [1] (Table 1) is more than 1000 nM; on HIF-2α (Table 1, 20 hours incubation) it was more than 1000 nM.
Regarding `N#Cc1cc(F)cc2c1[C@H](c1ccc(C(F)(F)F)c3c1OC(F)(F)[C@H]3O)CCC2` [Example 108], the IC50 in experiment [1] (Table 1) is more than 1000 nM; at HIF-2α (Table 1, 20 hours incubation), more than 1000 nM.
Turning to `O=S(=O)(c1ccc([C@]2(O)CCCc3cc(F)cc(F)c32)c2c1[C@H](O)[C@H](F)C2)C(F)(F)F` [Example 109], the IC50 in experiment [1] (Table 1) is more than 1000 nM; at HIF-2α (Table 1, 20 hours incubation) it was more than 1000 nM.
Take `CS(=O)(=O)c1ccc(C2CCCc3cc(F)cc(F)c32)c2cccnc12` (stereo not drawn) [Example 110]: the IC50 in experiment [1] (Table 1) was more than 1000 nM; on HIF-2α (Table 1, 20 hours incubation), more than 1000 nM.
Consider `CS(=O)(=O)c1ccc([C@H]2NCCc3cc(F)cc(F)c32)c2c1[C@H](O)C(F)(F)C2` [Example 111], for which the IC50 is more than 1000 nM in experiment [1] (Table 1) and more than 1000 nM against HIF-2α (Table 1, 20 hours incubation).
Turning to `O=S(=O)(c1ccc([C@@H]2CCNc3cc(F)cc(F)c32)c2c1[C@H](O)[C@H](F)C2)C(F)(F)F` [Example 112], the IC50 in experiment [1] (Table 1) was more than 1000 nM; against HIF-2α (Table 1, 20 hours incubation), more than 1000 nM.
As to `CC1(O)c2c(S(C)(=O)=O)ccc([C@H]3CCCc4cc(F)cc(F)c43)c2CC1(F)F` (stereo partly drawn) [Example 113], the IC50 is more than 1000 nM in experiment [1] (Table 1) and more than 1000 nM against HIF-2α (Table 1, 20 hours incubation).
As for `CC1(C)CC[C@H](c2ccc(S(=O)(=O)C(F)(F)F)c3c2C[C@@H](F)[C@H]3O)c2c(C#N)cc(F)cc21` [Example 114], the IC50 in experiment [1] (Table 1) was less than 100 nM; against HIF-2α (Table 1, 20 hours incubation), less than 100 nM.
Consider `N#Cc1cc(F)cc2c1[C@@H](c1ccc(S(=O)(=O)C(F)F)c3c1C[C@@H](F)[C@H]3O)CCC2` [Example 115], for which the IC50 was less than 100 nM in experiment [1] (Table 1) and less than 100 nM against HIF-2α (Table 1, 20 hours incubation).
For the compound `Cn1nccc1-c1ccc([C@H]2CCCc3cc(F)cc(C#N)c32)c2c1[C@H](O)C(F)(F)C2` [Example 116], the IC50 in experiment [1] (Table 1) is less than 100 nM; on HIF-2α (Table 1, 20 hours incubation), less than 100 nM.
Consider `N#Cc1cc(F)cc2c1[C@@H](c1ccc(Cl)c3c1CC(F)(F)[C@H]3O)CCC2` [Example 117], for which the IC50 lay in the range of 100 to 1000 nM in experiment [1] (Table 1) and 100 to 1000 nM on HIF-2α (Table 1, 20 hours incubation).
On to `N#Cc1cc(F)cc2c1N(c1ccc(C(F)(F)F)c(F)c1C#N)CCC2` [Example 118], for which the IC50 lay within 100 to 1000 nM in experiment [1] (Table 1) and 100 to 1000 nM against HIF-2α (Table 1, 20 hours incubation).
As to `N#Cc1cc(F)cc2c1N(c1ccc(C(F)(F)F)c(F)c1C#N)CCC2O` (stereo not drawn) [Example 119], the IC50 in experiment [1] (Table 1) is more than 1000 nM; against HIF-2α (Table 1, 20 hours incubation) it was 100 to 1000 nM.
Consider `CC1(O)CCN(c2ccc(C(F)(F)F)c(F)c2C#N)c2c(C#N)cc(F)cc21` (stereo not drawn) [Example 120], for which the IC50 in experiment [1] (Table 1) fell in the range of 100 to 1000 nM; on HIF-2α (Table 1, 20 hours incubation), 100 to 1000 nM.
Turning to `N#Cc1cc(F)cc2c1N(c1ccc(C(F)(F)F)c(F)c1C#N)CC[C@@H]2F` [Example 121, (4S)-1-[2-Cyano-3-fluoro-4-(trifluoromethyl)phenyl]-4,6-difluoro-3,4-dihydro-2H-quinoline-8-carbonitrile], the IC50 was less than 100 nM in experiment [1] (Table 2) and less than 100 nM at HIF-2α (Table 2, 20 hours incubation).
In the case of `CS(=O)(=O)c1ccc(N2CCC(F)c3cc(F)cc(C#N)c32)c(C#N)c1Cl` (stereo not drawn) [Example 122, 1-(3-chloro-2-cyano-4-methylsulfonylphenyl)-4,6-difluoro-3,4-dihydro-2H-quinoline-8-carbonitrile], the IC50 in experiment [1] (Table 2) was less than 100 nM; at HIF-2α (Table 2, 20 hours incubation) it was less than 100 nM.
With `N#Cc1cc(F)cc2c1N(c1ccc(C(F)(F)F)c(Cl)c1C#N)CCC2F` (stereo not drawn) [Example 123, 1-[3-Chloro-2-cyano-4-(trifluoromethyl)phenyl]-4,6-difluoro-3,4-dihydro-2H-quinoline-8-carbonitrile], the IC50 was less than 100 nM in experiment [1] (Table 2) and less than 100 nM against HIF-2α (Table 2, 20 hours incubation).
`N#Cc1cc(F)cc2c1N(c1ccc(C(F)(F)F)c(F)c1C#N)CCC2C#N` (stereo not drawn) [Example 124, 1-[2-cyano-3-fluoro-4-(trifluoromethyl)phenyl]-6-fluoro-3,4-dihydro-2H-quinoline-4,8-dicarbonitrile]: the IC50 in experiment [1] (Table 2) is less than 100 nM; at HIF-2α (Table 2, 20 hours incubation) it was less than 100 nM.
As to `N#Cc1cc(F)cc2c1N(c1ccc(C(F)(F)F)c(F)c1C#N)CCC2(F)F` [Example 125, 1-[2-cyano-3-fluoro-4-(trifluoromethyl)phenyl]-4,4,6-trifluoro-2,3-dihydroquinoline-8-carbonitrile], the IC50 in experiment [1] (Table 2) was less than 100 nM; at HIF-2α (Table 2, 20 hours incubation), less than 100 nM.
As for `Cc1c(N2CCC(F)(F)c3cc(F)cc(C#N)c32)cnc(C(C)(F)F)c1F` [Example 126, 1-[6-(1,1-Difluoroethyl)-5-fluoro-4-methylpyridin-3-yl]-4,4,6-trifluoro-2,3-dihydroquinoline-8-carbonitrile], the half-inhibitory concentration (IC50) in experiment [1] (Table 2) was less than 100 nM; against HIF-2α (Table 2, 20 hours incubation), less than 100 nM.
Turning to `N#Cc1cc(F)cc2c1N(c1cnc(C(F)(F)F)c(F)c1Cl)CCC2(F)F` [Example 127, 1-[4-Chloro-5-fluoro-6-(trifluoromethyl)pyridin-3-yl]-4,4,6-trifluoro-2,3-dihydroquinoline-8-carbonitrile], the IC50 in experiment [1] (Table 2) was less than 100 nM; against HIF-2α (Table 2, 20 hours incubation), less than 100 nM.
Regarding `Cc1c(N2CCC(F)(F)c3cc(F)cc(C#N)c32)cnc(C(F)(F)F)c1C#N` [Example 128, 1-[5-cyano-4-methyl-6-(trifluoromethyl)pyridin-3-yl]-4,4,6-trifluoro-2,3-dihydroquinoline-8-carbonitrile], the IC50 in experiment [1] (Table 2) was less than 100 nM; at HIF-2α (Table 2, 20 hours incubation) it was less than 100 nM.
With `Cc1c(N2CCC(F)(F)c3cc(F)cc(C#N)c32)cnc(C(F)(F)F)c1F` [Example 129, 4,4,6-Trifluoro-1-[5-fluoro-4-methyl-6-(trifluoromethyl)pyridin-3-yl]-2,3-dihydroquinoline-8-carbonitrile], the IC50 in experiment [1] (Table 2) was less than 100 nM; at HIF-2α (Table 2, 20 hours incubation), less than 100 nM.
Regarding `N#Cc1cc(F)cc2c1N(c1ccc(C(F)(F)F)c(F)c1C#N)C[C@H](F)[C@@H]2F` [Example 130, (3S,4R)-1-[2-Cyano-3-fluoro-4-(trifluoromethyl)phenyl]-3,4,6-trifluoro-1,2,3,4-tetrahydroquinoline-8-carbonitrile], the IC50 in experiment [1] (Table 2) is less than 100 nM; against HIF-2α (Table 2, 20 hours incubation) it was less than 100 nM.
In the case of `COC1CCN(c2ccc(C(F)(F)F)c(F)c2C#N)c2c(C#N)cc(F)cc21` (stereo not drawn) [Example 131, 1-[2-Cyano-3-fluoro-4-(trifluoromethyl)phenyl]-6-fluoro-4-methoxy-3,4-dihydro-2H-quinoline-8-carbonitrile], the IC50 is less than 100 nM in experiment [1] (Table 2) and less than 100 nM against HIF-2α (Table 2, 20 hours incubation).
For the compound `COC1CCN(c2ccc(C(C)(F)F)c(F)c2C#N)c2c(C#N)cc(F)cc21` (stereo not drawn) [Example 132, 1-[2-Cyano-4-(1,1-difluoroethyl)-3-fluorophenyl]-6-fluoro-4-methoxy-3,4-dihydro-2H-quinoline-8-carbonitrile], the IC50 in experiment [1] (Table 2) is less than 100 nM; against HIF-2α (Table 2, 20 hours incubation), less than 100 nM.
For the compound `CC(F)(F)c1ccc(N2CCC(F)(F)c3cc(F)cc(C#N)c32)c(C#N)c1F` [Example 133, 1-[2-cyano-4-(1,1-difluoroethyl)-3-fluorophenyl]-4,4,6-trifluoro-1,2,3,4-tetrahydro-8-quinolinecarbonitrile], the IC50 in experiment [1] (Table 2) is less than 100 nM; at HIF-2α (Table 2, 20 hours incubation) it was less than 100 nM.
With `CS(=O)(=O)c1ccc([C@H]2CC[C@H](F)c3cc(F)cc(C#N)c32)c2c1[C@H](O)[C@H](F)C2` [Example 134, (5S,8R)-3,5-Difluoro-8-[(1S,2R)-2-fluoro-1-hydroxy-7-methylsulfonyl-2,3-dihydro-1H-inden-4-yl]-5,6,7,8-tetrahydronaphthalene-1-carbonitrile], the IC50 is less than 100 nM in experiment [1] (Table 2) and less than 100 nM against HIF-2α (Table 2, 20 hours incubation).
As for `CS(=O)(=O)c1ccc([C@H]2CCC(F)(F)c3cc(F)cc(C#N)c32)c2c1[C@H](O)[C@H](F)C2` [Example 135, (8R)-3,5,5-Trifluoro-8-[(1S,2R)-2-fluoro-1-hydroxy-7-methylsulfonyl-2,3-dihydro-1H-inden-4-yl]-7,8-dihydro-6H-naphthalene-1-carbonitrile], the IC50 in experiment [1] (Table 2) was less than 100 nM; against HIF-2α (Table 2, 20 hours incubation), less than 100 nM.
